Assay results reported in US20230285435A1, “COMPOSITIONS AND METHODS FOR TREATING VIRAL INFECTIONS” (priority 2020, published 2023).
Structures can show the parent of a compound that is named as a salt.

Experiments:
[1] = test system: SARS-CoV2 in Calu-3 cells; format: cell-based
[2] = test system: SARS-CoV2 infected Vero-E6 cells and human lung epithelial cells (Calu-3); format: cell-based; set-up: inhibiting cytopathic effect (% of cells): dose or concentration left out as unconfirmed; conditions: for efficacy of the agent alone, in words: single agent; for synergy with remdesivir (BLISS independence model, synergyfinder): in combination with remdesivir, synergy score >10 signifies synergy

| Compound | synergy in combination with remdesivir [1] | further results |
| --- | --- | --- |
| COC(=O)N[C@H](C(=O)N1CC2(CC2)C[C@H]1c1ncc(-c2ccc3c(c2)C(F)(F)c2cc(-c4ccc5nc([C@@H]6[C@H]7CC[C@H](C7)N6C(=O)[C@@H](NC(=O)OC)C(C)C)[nH]c5c4)ccc2-3)[nH]1)C(C)C [Ledipasvir] | synergy |  |
| COC(=O)N[C@H](C(=O)N1CCC[C@H]1C(=O)Nc1ccc([C@@H]2CC[C@@H](c3ccc(NC(=O)[C@@H]4CCCN4C(=O)[C@@H](NC(=O)OC)C(C)C)cc3)N2c2ccc(C(C)(C)C)cc2)cc1)C(C)C [Ombitasvir] | synergy |  |
| COC(=O)N[C@H](C(=O)N1CCC[C@H]1c1nc2cc([C@H]3CC[C@H](c4cc5nc([C@@H]6CCCN6C(=O)[C@@H](NC(=O)OC)[C@@H](C)OC)[nH]c5cc4F)N3c3cc(F)c(N4CCC(c5ccc(F)cc5)CC4)c(F)c3)c(F)cc2[nH]1)[C@@H](C)OC [Pibrentasvir] | synergy |  |
| CCC(CC)COC(=O)[C@H](C)N[P@](=O)(OC[C@H]1O[C@@](C#N)(c2ccc3c(N)ncnn23)[C@H](O)[C@@H]1O)Oc1ccccc1 [remdesivir] |  | preventing a virus-caused pathology (% of cells) ([2]; 300 nM remdesivir alone): 7%; efficacy of the agent alone, in words [2]: only active at high uM concentrations |
| COc1c(C)c2c(c(O)c1C/C=C(\C)CCC(=O)O)C(=O)OC2 [Mycophenolic acid] | synergy |  |
| COC(=O)N[C@H](C(=O)N1CCC[C@H]1c1ncc(-c2ccc(-c3ccc(-c4cnc([C@@H]5CCCN5C(=O)[C@@H](NC(=O)OC)C(C)C)[nH]4)cc3)cc2)[nH]1)C(C)C [Daclatasvir dihydrochloride] | synergy |  |
| COC(=O)N[C@H](C(=O)N1CC2(CC2)C[C@H]1c1ncc(-c2ccc3c(c2)C(F)(F)c2cc(-c4ccc5nc(C6[C@H]7CC[C@H](C7)N6C(=O)[C@@H](NC(=O)OC)C(C)C)[nH]c5c4)ccc2-3)[nH]1)C(C)C (stereo partly drawn) [Ledipasvir acetone] | synergy |  |
| Elbasvir |  | synergy with remdesivir (BLISS independence model, synergyfinder) [2]: synergistic |
| COC[C@H]1C[C@@H](c2nc(-c3ccc4c(c3)COc3cc5c(ccc6nc([C@@H]7CC[C@H](C)N7C(=O)[C@@H](NC(=O)OC)C(C)C)[nH]c65)cc3-4)c[nH]2)N(C(=O)[C@H](NC(=O)OC)c2ccccc2)C1 [Velpatasvir] |  | synergy with remdesivir (BLISS independence model, synergyfinder) [2]: strongest; efficacy of the agent alone, in words [2]: modest efficacy; inhibiting cytopathic effect (% of cells) ([2]; velpatasvir alone (so in the source)): 16% |
